Patent US8377961B2, “Cyclic-alkylamine derivatives as inhibitors of the interaction between MDM2 and P53” (Janssen Pharmaceutica N.V., priority 2006, dated 2013)
Where two headings read alike, the source gives them in different places.

Columns and labels:
[1] = test system: U87MG cells; experiment: Proliferation assay (MTT-based) on U87MG tumour cells; format: cell-based; conditions: Homo sapiens, U-87 MG, 96 h, 4 days of incubation
Description: Cellular activity of the compounds of formula (I) was determined on U87MG tumour cells using a colorimetric assay for cell toxicity or survival (see example C.2).
U87MG cells are human glioblastoma cells with wild type p53. In this cell line MDM2 tightly controls p53 expression.
All compounds tested were dissolved in DMSO and further dilutions were made in culture medium. Final DMSO concentrations never exceeded 0.1% (v/v) in cell proliferation assays. Controls contained U87MG cells and DMSO without compound and blanks contained DMSO but no cells.
U87MG cells were seeded in 96-well cell culture plates at 3000 cells/well/100 μl. 24 hours later, medium was changed and compound and/or solvent were added to a final volume of 200 μl. Following 4 days of incubation, medium was replaced by 200 μl fresh medium and cell growth was assessed using a MTT-based assay. Therefore, 25 μl of the MTT solution (0.5% MTT research grade from Serva in phosphate-buffered saline) was added to each well and the cells were further incubated for 2 hours at 37° C. The medium was then carefully aspirated and the blue MTT-formazan product was dissolved by adding to each well 25 μl 0.1M glycin and 100 μl DMSO. The plates were shaken for another 10 min on a micro plate shaker before reading absorbance at 540 nm by a Biorad micro plate reader.
Within an experiment, the results for each experimental condition are the mean of 3 replicate wells. For initial screening purposes, compounds were tested at a single fixed concentration of 10^−5 M. For active compounds, the experiments were repeated to establish full concentration-response curves. For each experiment, controls (containing no drug) and a blank incubation (containing no cells or drugs) were run in parallel. The blank value was subtracted from all control and sample values. For each sample, the mean value for cell growth (in absorbance units) was expressed as a percentage of the mean value for cell growth of the control. When appropriate, IC50-values (concentration of the drug, needed to reduce cell growth to 50% of the control) were computed using probit analysis for graded data (Finney, D. J., Probit Analyses, 2nd Ed. Chapter 10, Graded Responses, Cambridge University Press, Cambridge 1962). Herein the effects of test compounds are expressed as pIC50 (the negative log value of the IC50-value) (see table F-2).
In some of the experiments the proliferation assay was adapted for and used in 384-well culture plates (see table F-2).

[2] = test system: p53 in A2780 cells; experiment: p53 ELISA (capacity to preserve p53 in A2780 cells); format: cell-based; conditions: lowest dose giving at least 140% of the value for p53 present in the control; A2780 cells treated with compound for 16 hours
Description: The capacity of the compounds to preserve p53 in A2780 cells was measured with the p53 enzyme linked immunosorbent assay. The p53 assay is a “sandwich” enzyme immunoassay employing two polyclonal antibodies. A polyclonal antibody, specific for the p53 protein, has been immobilized onto the surface of the plastic wells. Any p53 present in the sample to be assayed will bind to the capture antibody. The biotinylated detector polyclonal antibody also recognizes p53 protein, and will bind to any p53, which has been retained by the capture antibody. The detector antibody, in turn, is bond by horseradish peroxidase-conjugated streptavidin. The horseradish peroxidase catalyses the conversion of the chromogenic substrate o-phenylene diamine, the intensity of which is proportional to the amount of p53 protein bond to the plate. The colored reaction product is quantified using a spectrophotometer. Quantitation is achieved by the construction of a standard curve using known concentrations of purified recombinant HIS tagged p53 protein (see example C.1.).
A2780 cells (ATCC) were cultivated in RPMI 1640 supplemented with 10% fetal calf serum (FCS), 2 mM L-glutamine and gentamycin at 37° C. in a humidified incubator with 5% CO2.
A2780 cells were seeded at 20.000 cells per well in a 96 well plate, cultured for 24 hours and treated with compound for 16 hours at 37° C. in a humidified incubator. After incubation, the cells were washed once with phosphate-buffered saline and 30 μl, per well, low salt RIPA buffer (20 mM tris, pH7.0, 0.5 mM EDTA, 1% Nonidet P40, 0.5% DOC, 0.05% SDS, 1 mM PMSF, 1 μg/ml aprotinin and 0.5 μ/ml leupeptin) was added. Plates were placed on ice for 30 minutes to complete the lysis. p53 protein was detected in de lysates by using the sandwich ELISA, described below.
High binding polystyrene EIA/RIA 96 well plates (Costar 9018) were coated with the capture antibody pAb1801 (Abcam ab28-100) at a concentration of 1 μg/ml in coating buffer (0.1 M NaHCO3 pH8.2), 50 μl per well. The antibody was allowed to adhere overnight at 4° C. Coated plates were washed once with phosphate-buffered saline (PBS)/0.05% Tween 20 and 300 μl of blocking buffer (PBS, 1% bovine serum albumins (BSA)) was added, for an incubation period of 2 hours at room temperature. Dilutions of purified recombinant HIS tagged p53 protein, ranging from 3-200 ng/ml, were made in blocking buffer and used as standards.
Plates were washed twice with PBS/0.05% Tween 20 and blocking buffer or standards were added at 80 μl/well. To the standards, 20 μl of lysis buffer was added. The samples were added to the other wells at 20 μl lysate/well. After an overnight incubation at 4° C., plates were washed twice with PBS/0.05% Tween 20. Aliquots of 100 μl secondary polyclonal antibody p53(FL-393) (Tebubio, sc-6243) at a concentration of 1 μg/ml in blocking buffer were added to each well and allowed to adhere for 2 hours at room temperature. Plates were washed three times with PBS/0.05% Tween 20. Detection antibody anti-rabbit HRP (sc-2004, Tebubio) at 0.04 μg/ml in PBS/1% BSA was added and incubated for 1 hour at room temperature. Plates were washed three times with PBS/0.05% Tween 20 and 100 μl of substrate buffer was added (substrate buffer was prepared shortly before use by adding 1 tablet of 10 mg o-phenylene diamine (OPD) from Sigma and 125 μl 3% H2O2 to 25 ml OPD buffer: 35 mM citric acid, 66 mM Na2HPO4, pH5.6). After 5 to 10 minutes, colour reaction was stopped by adding 50 μl stop buffer (1 M H2SO4) per well. The absorbance at dual wavelengths of 490/655 nm was measured using a Biorad micro plate reader and the results were then analyzed.
For each experiment, controls (containing no drug) and a blank incubation (containing no cells or drugs) were run in parallel. The blank value was subtracted from all control and sample values. For each sample, the value of p53 (in absorbance units) was expressed as the percentage of the value for p53 present in the control. […]

[3] = 96-well plates, read-out: cell proliferation pIC50 96 well (converted)

Structure (SMILES) | IC50 [1, 3] [nM] | IC50 ([1]; 384-well culture plates, read-out: cell proliferation pIC50 384 well (converted)) [nM] | A2780 p53-elisa LAD [2] [µM]
c1ccc2c(N3CCc4cc(NCCc5c[nH]c6ccccc56)ccc43)ccnc2c1 [Compound 2] | 1700 |  | 1
OCc1cc(N2CCc3cc(NCCc4c[nH]c5ccccc45)ccc32)ccn1 [Compound 4] | 158 |  | 0.3
OC1CCc2c(N3CCc4cc(NCCc5c[nH]c6ccccc56)ccc43)ccnc21 (stereo not drawn) [Compound 5] | 295 |  | 0.3

The next lines start with results.

IC50 [1, 3] [nM] | IC50 ([1]; 384-well culture plates, read-out: cell proliferation pIC50 384 well (converted)) [nM] | Structure (SMILES) | A2780 p53-elisa LAD [2] [µM]
10 |  | c1ccc2c(CCNc3ccc4c(c3)CCN4c3ccncc3)c[nH]c2c1 [Compound 1] | 0.1
4170 |  | COC(=O)c1cc(N2CCc3cc(NCCc4c[nH]c5ccccc45)ccc32)ccn1 [Compound 3] | 1
 | 295 | CC1(C)CN(c2ccncc2)c2ccc(NCCc3c[nH]c4ccccc34)cc21 [Compound 6] | 3
